20 compounds from PubChem BioAssay (NCI) can be followed below.

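In this assay, cells in 96-well plates receive the compound at five concentrations for 48 hours. Endpoints are linearly interpolated between the surrounding concentrations. Abbreviation: GI50, concentration required for 50% inhibition of growth. TGI: total growth inhibition.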 Bounds are passed on as bounds.

Some test systems named below: NCI-H23 lung; UACC-62 melanoma; NCI-H460 lung; MOLT-4 leukemia; SF-268 CNS; LOX IMVI melanoma; SK-MEL-5 melanoma; LXFL 529 NSCLC; SR leukemia; XF 498 CNS; MCF7 breast.
What all share (assay): growth of human tumour cells (NCI), 48 h

As for `O=C(c1ccc(Cl)cc1)N(C(=S)N1CCN(c2ccccn2)CC1)C1CCCCC1`, the TGI with NCI-H23 lung is over 100 µM; with UACC-62 melanoma, over 100 µM; with NCI-H460 lung it was over 100 µM; in the test with MOLT-4 leukemia, 96.5 µM; with SF-268 CNS, over 100 µM; in the test with LOX IMVI melanoma it was over 100 µM. Besides, the TGI in the test on SK-MEL-5 melanoma was over 100 µM; with LXFL 529 NSCLC, over 100 µM; in the test on SR leukemia it was over 100 µM; in the test with XF 498 CNS, 80.3 µM.
On to `NC1=NS(=O)(=O)Nc2nc(-c3ccccc3)[nH]c21`, for which the TGI with NCI-H23 lung, in the test with UACC-62 melanoma, in the test on NCI-H460 lung, in the test with MOLT-4 leukemia, in the test with SF-268 CNS and in the test with LOX IMVI melanoma was over 100 µM each time. Moreover, the TGI in the test with SK-MEL-5 melanoma, in the test on LXFL 529 NSCLC, with SR leukemia and in the test on XF 498 CNS was over 100 µM in each case.
On to `C=C(NC(=O)C(=C)NC(=O)c1csc(C2=NC3c4csc(n4)C4NC(=O)c5csc(n5)C(C(C)(O)C(C)O)NC(=O)C5CSC(=N5)/C(=C/C)NC(=O)C(C(C)O)NC(=O)c5csc(n5)C3(CC2)NC(=O)C(C)NC(=O)C(=C)NC(=O)C(C)NC(=O)C(C(C)CC)NC2C=Cc3c(C(C)O)cc(nc3C2O)C(=O)OC4C)n1)C(N)=O` (configuration not stated), for which the TGI is 13.7 µM with NCI-H23 lung; over 100 µM in the test on MCF7 breast; 2.42 µM in the test with UACC-62 melanoma; 4.39 µM in the test on NCI-H460 lung; over 100 µM in the test with SF-268 CNS; 2.45 µM with LOX IMVI melanoma. For the same compound, the TGI with SK-MEL-5 melanoma came to 2.58 µM; in the test with LXFL 529 NSCLC, 1.65 µM. Further, the GI50 was 6.27 µM in the test on MCF7 breast and 4.74 µM in the test on SF-268 CNS.
For `COc1ccc([C@@H]2CC(=O)N2)cc1`, the TGI with NCI-H23 lung, in the test with UACC-62 melanoma, in the test with NCI-H460 lung, in the test on MOLT-4 leukemia, with SF-268 CNS and in the test with SK-MEL-5 melanoma was over 100 µM each time. Further, the TGI with LXFL 529 NSCLC, in the test on SR leukemia and in the test with XF 498 CNS was over 100 µM throughout.
`O=C(O)c1ccc(C2=Cc3cc(Cl)ccc3OC2)cc1`: the TGI with NCI-H23 lung, in the test with UACC-62 melanoma, in the test with NCI-H460 lung, in the test on MOLT-4 leukemia, with SF-268 CNS and with LOX IMVI melanoma was over 100 µM throughout. Moreover, the TGI with SK-MEL-5 melanoma, in the test on LXFL 529 NSCLC, in the test with SR leukemia and with XF 498 CNS was over 100 µM each time.
Turning to `C=C1C(=O)O[C@@H]2[C@H](O)[C@@H](C)[C@@H]3C=CC(=O)[C@@]3(C)[C@@H](OC(=O)/C(C)=C/C)[C@H]12`, the TGI with NCI-H23 lung was found to be 2.57 µM; with MCF7 breast it was 5.15 µM; in the test with UACC-62 melanoma it was 1.11 µM; with NCI-H460 lung, 1.93 µM; in the test with MOLT-4 leukemia, 2.09 µM; with SF-268 CNS, 3.84 µM. Moreover, the TGI amounted to 2.88 µM in the test on LOX IMVI melanoma, 4.43 µM in the test with SK-MEL-5 melanoma and 0.867 µM with XF 498 CNS.
Turning to `O=[N+]([O-])C(/C=N/Nc1ccccc1)/C=N/Nc1ccccc1`, the TGI in the test on NCI-H23 lung, in the test on UACC-62 melanoma, in the test with NCI-H460 lung, in the test with MOLT-4 leukemia, in the test with SF-268 CNS and in the test on LOX IMVI melanoma was over 100 µM throughout. The TGI with SK-MEL-5 melanoma, with LXFL 529 NSCLC and in the test with XF 498 CNS was over 100 µM throughout.
Take `COc1c2c(c3ccccc3c1O)C1C=CC2C1` (configuration not stated): the TGI amounted to 28.9 µM with NCI-H23 lung; 30.4 µM in the test on UACC-62 melanoma; 34 µM with NCI-H460 lung; 47.2 µM in the test with MOLT-4 leukemia; 33.7 µM in the test on SF-268 CNS; 17.1 µM in the test with LOX IMVI melanoma. The TGI with SK-MEL-5 melanoma was found to be 19.1 µM; in the test with LXFL 529 NSCLC, 14.7 µM; in the test on SR leukemia it was 68.4 µM; in the test with XF 498 CNS, 27.9 µM.
Take `CCOC(=O)C(Cc1ccc(OC(=O)OC(C)(C)C)cc1)NC(=O)OC(C)(C)C` (configuration not stated): the TGI with NCI-H23 lung is over 100 µM; in the test with MCF7 breast it was over 100 µM; in the test with UACC-62 melanoma it was over 100 µM; in the test on NCI-H460 lung, over 100 µM; in the test with MOLT-4 leukemia, 56.7 µM; with SF-268 CNS it was over 100 µM. For the same compound, the TGI in the test on LOX IMVI melanoma was over 100 µM; with SK-MEL-5 melanoma, over 100 µM; in the test on SR leukemia it was 67.5 µM.
As to `CCOC(=O)c1nc2ccc(C(F)(F)F)cc2nc1Nc1ccc(Cl)c(Cl)c1`, the TGI in the test with NCI-H23 lung, in the test with MCF7 breast, in the test on UACC-62 melanoma, in the test with NCI-H460 lung, with MOLT-4 leukemia and with SF-268 CNS was over 100 µM each time. The TGI with LOX IMVI melanoma, in the test with SK-MEL-5 melanoma and in the test with SR leukemia was over 100 µM in each case.
On to `O=C(c1ccccc1)C1S(=O)(=O)OCCOS1(=O)=O`, for which the TGI with NCI-H23 lung, with UACC-62 melanoma, in the test with SF-268 CNS, with LOX IMVI melanoma, in the test on SK-MEL-5 melanoma and in the test with LXFL 529 NSCLC was over 100 µM each time. Also, the TGI with SR leukemia and in the test with XF 498 CNS was over 100 µM each time.
With `CCCCCCCCCCCC[C@@H](O)[C@H]1CCC([C@H](O)CCCCC(=O)CCCCCCCC2=C[C@H](C)OC2=O)O1` (some centres not stated), the TGI in the test with NCI-H23 lung was over 50 µM; with MCF7 breast it was over 50 µM; in the test on UACC-62 melanoma, over 40.9 µM; in the test with NCI-H460 lung, over 50 µM; in the test on MOLT-4 leukemia it was over 50 µM; in the test on SF-268 CNS, over 50 µM. In addition, the values for the TGI in the test on LOX IMVI melanoma, in the test on SK-MEL-5 melanoma and in the test on SR leukemia were over 50 µM, over 20.2 µM and 10.1 µM, respectively.
With `C=C1C(O)C[C@H](OC(C)=O)[C@]2(C)C1C(OC(C)=O)[C@]1(C(C)(C)O)CC(O)C(C)=C1[C@@H](OC(=O)c1ccccc1)C2OC(C)=O` (some centres not stated), the TGI in the test with NCI-H23 lung, with MCF7 breast, with UACC-62 melanoma, with NCI-H460 lung, with MOLT-4 leukemia and with SF-268 CNS was over 10 µM each time. In addition, the TGI in the test on LOX IMVI melanoma, in the test on SK-MEL-5 melanoma and in the test with SR leukemia was over 10 µM throughout.
For the compound `CSc1ccn(C2CC(F)C(CO)O2)c(=O)n1` (configuration not stated), the TGI in the test with NCI-H23 lung, in the test with MCF7 breast, in the test with UACC-62 melanoma, in the test on NCI-H460 lung, in the test on MOLT-4 leukemia and in the test on SF-268 CNS was over 100 µM throughout. Besides, the TGI in the test on LOX IMVI melanoma, in the test on SK-MEL-5 melanoma and with SR leukemia was over 100 µM throughout.
Turning to `O=C1/C=C(/c2ccc(O)cc2)[C@@H](O)Cc2ccc(O)cc2O1`, the TGI with NCI-H23 lung, with UACC-62 melanoma, in the test on NCI-H460 lung, in the test on SF-268 CNS, in the test on LOX IMVI melanoma and in the test with SK-MEL-5 melanoma was over 100 µM in each case. Further, the TGI in the test on LXFL 529 NSCLC and in the test on SR leukemia was over 100 µM each time.
For `COc1cc(OC)cc(-c2n/c(=C\c3c(O)[nH]c4ccc(OC)cc34)cc3c2=Nc2ccccc2-3)c1`, the GI50 was 2.78 µM with NCI-H23 lung; 1.4 µM in the test on MCF7 breast; 18.3 µM in the test on UACC-62 melanoma; 2.36 µM with NCI-H460 lung; 2.56 µM in the test on MOLT-4 leukemia; 10.2 µM in the test with SF-268 CNS. For the same compound, the values for the GI50 in the test with LOX IMVI melanoma, in the test with SK-MEL-5 melanoma and with SR leukemia were 3.1 µM, 12.1 µM and 2.76 µM, respectively. For the same compound, the TGI in the test on NCI-H23 lung turned out to be 8.47 µM; in the test on MCF7 breast, 3.41 µM; in the test on UACC-62 melanoma, 36 µM; with NCI-H460 lung it was 5.62 µM; in the test with MOLT-4 leukemia it was 6.36 µM; with SF-268 CNS, 41.2 µM. Besides, the figures for the TGI with LOX IMVI melanoma, in the test on SK-MEL-5 melanoma and in the test with SR leukemia were 12.8 µM, 25.2 µM and 10.6 µM, respectively.
Turning to `O=c1[nH]cc(Cl)c(=O)[nH]1`, the TGI in the test on NCI-H23 lung, in the test on MCF7 breast, in the test with UACC-62 melanoma, in the test with NCI-H460 lung, in the test on MOLT-4 leukemia and in the test on SF-268 CNS was over 100 µM throughout. Also, the TGI with LOX IMVI melanoma, in the test with SK-MEL-5 melanoma and with SR leukemia was over 100 µM throughout.
With `CCOC(=O)C(Cc1c[nH]c2cc([N+](=O)[O-])ccc12)NS(=O)(=O)c1ccc2ccccc2c1` (configuration not stated), the TGI with NCI-H23 lung was 48.4 µM; in the test on UACC-62 melanoma, 31.3 µM; in the test with NCI-H460 lung it was 35.5 µM; in the test with MOLT-4 leukemia, over 100 µM; with SF-268 CNS, 43.5 µM; in the test on LOX IMVI melanoma it was 31.6 µM. Further, the TGI was 32.5 µM in the test on LXFL 529 NSCLC, 68.2 µM in the test with SR leukemia and 31.3 µM in the test on XF 498 CNS.
For the compound `COc1ccc2c3c([nH]c2c1)CCN(CCCC(=O)c1ccc(F)cc1)C3`, the TGI with NCI-H23 lung was determined as 34.8 µM; in the test on MCF7 breast, 31.6 µM; in the test on UACC-62 melanoma, 27.4 µM; in the test with NCI-H460 lung, 36.4 µM; in the test on MOLT-4 leukemia it was 36.2 µM; in the test with SF-268 CNS, 34.1 µM. The TGI in the test with LOX IMVI melanoma amounted to 26.7 µM; in the test with SK-MEL-5 melanoma, 26 µM; in the test with SR leukemia, 36.6 µM.
As for `CC(=O)Oc1ccc2c(c1)CC[C@@H]1C2[C@@H](O[N+](=O)[O-])C[C@@]2(C)C1CC[C@@H]2O[N+](=O)[O-]` (some centres not stated), the TGI in the test with NCI-H23 lung is 29.2 µM; in the test on MCF7 breast, 22.4 µM; in the test on UACC-62 melanoma, 32.5 µM; with NCI-H460 lung, 28.7 µM; in the test with MOLT-4 leukemia it was 38.4 µM; in the test with SF-268 CNS it was 29.7 µM. Besides, the TGI in the test with LOX IMVI melanoma came to 28.9 µM; in the test on SK-MEL-5 melanoma it was 22.7 µM; in the test with SR leukemia it was 27.7 µM.
